Measurements: ChEMBL document CHEMBL5126669, “Discovery of 5,7-Dihydro-6H-pyrrolo[2,3-d]pyrimidin-6-ones as Highly Selective CDK2 Inhibitors” (ACS Med Chem Lett, 2022)

Assays:
[1] = target: Cyclin-dependent kinase 2/cyclin E1 (Homo sapiens, UniProt P24941); assay: Inhibition of recombinant human N-terminal GST-tagged full-length CDK2/Flag-tagged cyclinE1 expressed in baculovirus expression system using eIF4E-binding protein-1 peptide as substrate incubated for 1 hr in presence of ATP by HTRF assay
Homo sapiens [2] = species on record: Homo sapiens; assay: Selectivity ratio of IC50 for inhibition of CDK1/cyclin B (unknown origin) to IC50 for inhibition recombinant human N-terminal GST-tagged full-length CDK2/Flag-tagged cyclinE1 expressed in baculovirus expression system
Homo sapiens [3] = species on record: Homo sapiens; assay: Selectivity ratio of IC50 for inhibition of CDK4/cyclin D1 (unknown origin) to IC50 for inhibition recombinant human N-terminal GST-tagged full-length CDK2/Flag-tagged cyclinE1 expressed in baculovirus expression system
Homo sapiens [4] = species on record: Homo sapiens; assay: Selectivity ratio of IC50 for inhibition of CDK6/cyclin D1 (unknown origin) to IC50 for inhibition recombinant human N-terminal GST-tagged full-length CDK2/Flag-tagged cyclinE1 expressed in baculovirus expression system
[5] = target: Cyclin-dependent kinase 2 (Homo sapiens, UniProt P24941); assay: Inhibition of CDK2 in human COV318 cells incubated for overnight in presence of human whole blood by HTRF assay; assay type: cell-based
[6] = Intrinsic clearance in human liver microsomes at 1 uM measured upto 30 mins by LC/MS analysis; assay type: ADME, Microsome; conditions: read-out: CLH (converted)
[7] = Inhibition of CDK1/cyclin B (unknown origin) in presence of ATP; parameters: species or system Homo sapiens
[8] = target: Cyclin-dependent kinase 1 (Homo sapiens, UniProt P06493); assay: Inhibition of CDK1 in human OVCAR3 cells incubated for 30 mins in presence of pNPM T199 by western blot analysis; assay type: cell-based, OVCAR-3
[9] = Cmax in Sprague-Dawley rat at 3 mg/kg, po measured upto 24 hrs by LC-MS/MS analysis; assay type: ADME, organism-based; parameters: dose 3 mg/kg, time < 24 hrs, route po; conditions: in vivo
[10] = Cmax in Cynomolgus monkey at 2 mg/kg, po measured upto 24 hrs by LC-MS/MS analysis; assay type: ADME, organism-based, Macaca fascicularis; parameters: dose 2 mg/kg, time < 24 hrs, route po; conditions: in vivo
[11] = AUC in Sprague-Dawley rat at 3 mg/kg, po measured upto 24 hrs by LC-MS/MS analysis; assay type: ADME, organism-based; parameters: dose 3 mg/kg, time < 24 hrs, route po; conditions: in vivo
[12] = AUC in Cynomolgus monkey at 2 mg/kg, po measured upto 24 hrs by LC-MS/MS analysis; assay type: ADME, organism-based, Macaca fascicularis; parameters: dose 2 mg/kg, time < 24 hrs, route po; conditions: in vivo
[13] = Oral bioavailability in Sprague-Dawley rat at 3 mg/kg measured upto 24 hrs by LC-MS/MS analysis; assay type: ADME, organism-based; conditions: in vivo
[14] = Oral bioavailability in Cynomolgus monkey at 2 mg/kg measured upto 24 hrs by LC-MS/MS analysis; assay type: ADME, organism-based, Macaca fascicularis; conditions: in vivo
[15] = Hepatic blood flow in Sprague-Dawley rat at 0.5 mg/kg, iv measured upto 24 hrs by LC-MS/MS analysis; assay type: ADME, organism-based; conditions: in vivo
[16] = Hepatic blood flow in Cynomolgus monkey at 0.3 mg/kg, iv measured upto 24 hrs by LC-MS/MS analysis; assay type: ADME, organism-based, Macaca fascicularis; conditions: in vivo
[17] = Volume of distribution at steady state in Sprague-Dawley rat at 0.5 mg/kg, iv measured upto 24 hrs by LC-MS/MS analysis; assay type: ADME, organism-based; conditions: Sprague-Dawley, in vivo, read-out: Vdss
[18] = Volume of distribution at steady state in Cynomolgus monkey at 0.3 mg/kg, iv measured upto 24 hrs by LC-MS/MS analysis; assay type: ADME, organism-based, Macaca fascicularis; conditions: in vivo, read-out: Vdss
Cytochrome P450 3A4 = Cytochrome P450 3A4 (Homo sapiens, UniProt P08684); assay: Inhibition of CYP3A4 (unknown origin) at >25 uM; assay type: ADME
hERG (KCNH2) = hERG (KCNH2) (Homo sapiens, UniProt Q12809); assay: Displacement of [3H]Dofetilide from human ERG at 10 uM incubated for 24 hrs by filter binding assay relative to control; assay type: toxicity; conditions: probe [3H]dofetilide
Cytochrome P450 1A2 = target: T1, Cytochrome P450 1A2 (Homo sapiens, UniProt P05177); assay: Inhibition of CYP1A2 (unknown origin) at >25 uM; assay type: ADME
T1 sequence (P05177 whole entry): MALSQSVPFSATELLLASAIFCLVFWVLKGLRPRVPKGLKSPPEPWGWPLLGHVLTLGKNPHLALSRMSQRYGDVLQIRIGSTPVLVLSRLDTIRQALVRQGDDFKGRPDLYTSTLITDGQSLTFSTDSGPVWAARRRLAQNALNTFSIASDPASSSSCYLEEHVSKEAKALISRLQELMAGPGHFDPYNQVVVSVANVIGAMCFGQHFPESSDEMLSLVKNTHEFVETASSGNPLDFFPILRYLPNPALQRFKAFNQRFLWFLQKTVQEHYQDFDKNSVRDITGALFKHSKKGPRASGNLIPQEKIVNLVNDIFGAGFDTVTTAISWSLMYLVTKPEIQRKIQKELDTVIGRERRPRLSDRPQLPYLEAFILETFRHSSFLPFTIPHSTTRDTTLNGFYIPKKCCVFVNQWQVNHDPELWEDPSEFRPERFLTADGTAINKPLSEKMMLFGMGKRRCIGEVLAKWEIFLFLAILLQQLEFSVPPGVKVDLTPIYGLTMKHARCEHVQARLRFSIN

Cytochrome P450 2C8 = target: T2, Cytochrome P450 2C8 (Homo sapiens, UniProt P10632); assay: Inhibition of CYP2C8 (unknown origin) at >25 uM; assay type: ADME
T2 sequence (P10632 whole entry): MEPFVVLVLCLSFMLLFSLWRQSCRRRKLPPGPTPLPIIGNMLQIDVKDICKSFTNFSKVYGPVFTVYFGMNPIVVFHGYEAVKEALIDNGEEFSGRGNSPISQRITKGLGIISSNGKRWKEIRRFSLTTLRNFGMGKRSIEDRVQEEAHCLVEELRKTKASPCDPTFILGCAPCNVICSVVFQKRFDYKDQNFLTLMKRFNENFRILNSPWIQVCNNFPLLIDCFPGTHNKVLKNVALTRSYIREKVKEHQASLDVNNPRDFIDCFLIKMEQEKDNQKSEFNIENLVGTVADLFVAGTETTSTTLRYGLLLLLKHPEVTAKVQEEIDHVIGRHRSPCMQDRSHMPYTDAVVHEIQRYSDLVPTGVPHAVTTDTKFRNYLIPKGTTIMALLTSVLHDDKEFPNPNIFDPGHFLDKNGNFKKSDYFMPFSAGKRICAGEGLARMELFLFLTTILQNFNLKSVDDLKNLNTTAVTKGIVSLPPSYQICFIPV

Cytochrome P450 2C19 = Cytochrome P450 2C19 (Homo sapiens, UniProt P33261); assay: Inhibition of CYP2C19 (unknown origin) at >25 uM; assay type: ADME
Cytochrome P450 2B6 = target: T3, Cytochrome P450 2B6 (Homo sapiens, UniProt P20813); assay: Inhibition of CYP2B6 (unknown origin) at >25 uM; assay type: ADME
T3 sequence (P20813 whole entry): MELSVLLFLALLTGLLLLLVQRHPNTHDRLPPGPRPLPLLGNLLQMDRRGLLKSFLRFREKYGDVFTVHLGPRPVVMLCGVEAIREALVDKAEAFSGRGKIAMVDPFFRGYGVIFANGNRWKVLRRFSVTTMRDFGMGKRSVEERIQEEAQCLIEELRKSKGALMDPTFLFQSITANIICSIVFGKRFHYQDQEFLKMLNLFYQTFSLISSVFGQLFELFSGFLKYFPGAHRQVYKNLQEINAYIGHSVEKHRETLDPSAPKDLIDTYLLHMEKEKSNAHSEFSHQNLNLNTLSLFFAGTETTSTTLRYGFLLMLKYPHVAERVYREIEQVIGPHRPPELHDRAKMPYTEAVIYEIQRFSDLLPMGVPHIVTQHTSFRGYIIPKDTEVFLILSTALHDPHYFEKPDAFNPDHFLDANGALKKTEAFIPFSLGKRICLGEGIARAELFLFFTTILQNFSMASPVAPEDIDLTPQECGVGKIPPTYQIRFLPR

Cytochrome P450 2C9 = Cytochrome P450 2C9 (Homo sapiens, UniProt P11712); assay: Inhibition of CYP2C9 (unknown origin) at >25 uM; assay type: ADME
Cytochrome P450 2D6 = Cytochrome P450 2D6 (Homo sapiens, UniProt P10635); assay: Inhibition of CYP2D6 (unknown origin) at >25 uM; assay type: ADME
Homo sapiens [19] = species on record: Homo sapiens; assay: Selectivity ratio of IC50 for inhibition of CDK1 in human OVCAR3 cells to IC50 for inhibition of CDK2 in human COV318 cells; assay type: cell-based

Sequence of hERG (KCNH2) (Q12809 whole entry): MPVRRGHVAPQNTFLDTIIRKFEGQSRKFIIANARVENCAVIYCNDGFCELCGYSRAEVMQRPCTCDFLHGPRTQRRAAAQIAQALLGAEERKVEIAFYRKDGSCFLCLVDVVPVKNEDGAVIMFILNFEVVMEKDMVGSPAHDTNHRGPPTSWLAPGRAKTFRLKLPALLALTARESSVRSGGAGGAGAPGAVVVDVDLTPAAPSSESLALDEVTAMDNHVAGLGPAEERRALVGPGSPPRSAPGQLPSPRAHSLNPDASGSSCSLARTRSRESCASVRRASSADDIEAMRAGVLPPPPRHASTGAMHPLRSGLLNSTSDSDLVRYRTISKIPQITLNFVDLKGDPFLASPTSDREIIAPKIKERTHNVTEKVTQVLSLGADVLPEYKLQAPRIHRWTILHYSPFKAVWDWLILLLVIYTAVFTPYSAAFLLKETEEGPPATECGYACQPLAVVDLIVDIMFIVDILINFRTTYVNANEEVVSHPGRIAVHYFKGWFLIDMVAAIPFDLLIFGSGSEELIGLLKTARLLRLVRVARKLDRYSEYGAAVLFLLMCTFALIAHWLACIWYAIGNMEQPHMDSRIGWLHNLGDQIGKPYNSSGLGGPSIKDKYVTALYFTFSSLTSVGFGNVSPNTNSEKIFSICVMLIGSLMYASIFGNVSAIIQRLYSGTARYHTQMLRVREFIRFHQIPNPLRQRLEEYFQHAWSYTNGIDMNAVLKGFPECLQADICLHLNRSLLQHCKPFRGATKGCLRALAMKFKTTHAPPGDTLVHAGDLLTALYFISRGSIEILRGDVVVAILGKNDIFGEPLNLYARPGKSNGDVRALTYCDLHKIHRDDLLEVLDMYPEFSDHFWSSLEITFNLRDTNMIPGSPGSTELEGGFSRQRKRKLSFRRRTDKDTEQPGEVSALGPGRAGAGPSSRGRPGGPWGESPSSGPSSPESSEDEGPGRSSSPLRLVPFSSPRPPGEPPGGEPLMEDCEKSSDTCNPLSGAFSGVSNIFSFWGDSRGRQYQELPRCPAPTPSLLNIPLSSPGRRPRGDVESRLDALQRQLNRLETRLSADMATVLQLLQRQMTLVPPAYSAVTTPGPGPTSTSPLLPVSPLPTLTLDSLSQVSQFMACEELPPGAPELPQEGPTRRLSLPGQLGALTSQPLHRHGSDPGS
Sequence of Cytochrome P450 2C9 (P11712 whole entry): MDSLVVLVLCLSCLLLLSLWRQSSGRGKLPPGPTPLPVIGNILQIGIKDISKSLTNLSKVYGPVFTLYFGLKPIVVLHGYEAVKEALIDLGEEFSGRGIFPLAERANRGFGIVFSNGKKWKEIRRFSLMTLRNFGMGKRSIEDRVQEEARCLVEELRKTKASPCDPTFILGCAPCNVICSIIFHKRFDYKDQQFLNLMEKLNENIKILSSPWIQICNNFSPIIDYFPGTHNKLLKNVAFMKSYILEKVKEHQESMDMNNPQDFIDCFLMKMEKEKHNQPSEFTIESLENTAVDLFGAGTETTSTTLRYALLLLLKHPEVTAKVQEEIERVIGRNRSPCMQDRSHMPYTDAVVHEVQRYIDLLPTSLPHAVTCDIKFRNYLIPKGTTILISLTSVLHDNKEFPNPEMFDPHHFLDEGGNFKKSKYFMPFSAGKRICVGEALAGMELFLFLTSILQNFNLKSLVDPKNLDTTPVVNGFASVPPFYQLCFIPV
Sequence of Cytochrome P450 2C19 (P33261 whole entry): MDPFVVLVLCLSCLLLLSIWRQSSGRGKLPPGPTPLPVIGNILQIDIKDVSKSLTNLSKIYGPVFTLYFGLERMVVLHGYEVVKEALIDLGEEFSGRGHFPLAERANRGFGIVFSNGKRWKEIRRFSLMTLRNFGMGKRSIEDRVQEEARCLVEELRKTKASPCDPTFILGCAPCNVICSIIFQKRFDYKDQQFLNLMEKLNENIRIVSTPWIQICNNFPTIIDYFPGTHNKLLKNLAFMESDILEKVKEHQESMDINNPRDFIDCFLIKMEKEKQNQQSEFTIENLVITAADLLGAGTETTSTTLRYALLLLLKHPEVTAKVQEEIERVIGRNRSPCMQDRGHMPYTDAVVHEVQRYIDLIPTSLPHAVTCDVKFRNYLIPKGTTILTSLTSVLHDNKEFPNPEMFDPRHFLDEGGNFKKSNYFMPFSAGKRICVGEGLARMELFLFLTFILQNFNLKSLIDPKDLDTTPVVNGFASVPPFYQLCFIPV
Sequence of Cyclin-dependent kinase 1 (P06493 whole entry): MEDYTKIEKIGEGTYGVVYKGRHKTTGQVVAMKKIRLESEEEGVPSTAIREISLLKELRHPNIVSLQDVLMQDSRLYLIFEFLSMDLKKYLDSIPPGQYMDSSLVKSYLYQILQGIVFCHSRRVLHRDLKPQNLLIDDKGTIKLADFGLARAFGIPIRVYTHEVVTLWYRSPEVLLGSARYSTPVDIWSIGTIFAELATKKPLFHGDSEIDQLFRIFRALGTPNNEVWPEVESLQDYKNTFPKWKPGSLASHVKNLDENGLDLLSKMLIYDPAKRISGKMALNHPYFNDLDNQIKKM
Sequence of Cytochrome P450 3A4 (P08684 whole entry): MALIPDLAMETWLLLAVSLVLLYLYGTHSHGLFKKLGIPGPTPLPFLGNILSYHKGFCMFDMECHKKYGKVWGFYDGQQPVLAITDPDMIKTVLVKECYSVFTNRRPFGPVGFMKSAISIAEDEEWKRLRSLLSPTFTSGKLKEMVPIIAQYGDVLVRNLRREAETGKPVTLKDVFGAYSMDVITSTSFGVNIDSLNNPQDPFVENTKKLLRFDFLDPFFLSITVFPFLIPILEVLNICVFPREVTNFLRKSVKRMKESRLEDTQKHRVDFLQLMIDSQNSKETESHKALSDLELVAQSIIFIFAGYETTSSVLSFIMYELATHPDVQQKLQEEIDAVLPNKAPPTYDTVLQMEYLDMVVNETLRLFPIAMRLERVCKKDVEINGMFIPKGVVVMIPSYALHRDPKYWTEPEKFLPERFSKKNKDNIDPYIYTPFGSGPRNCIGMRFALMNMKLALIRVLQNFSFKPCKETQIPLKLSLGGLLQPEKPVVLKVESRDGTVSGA
Sequence of Cytochrome P450 2D6 (P10635 whole entry): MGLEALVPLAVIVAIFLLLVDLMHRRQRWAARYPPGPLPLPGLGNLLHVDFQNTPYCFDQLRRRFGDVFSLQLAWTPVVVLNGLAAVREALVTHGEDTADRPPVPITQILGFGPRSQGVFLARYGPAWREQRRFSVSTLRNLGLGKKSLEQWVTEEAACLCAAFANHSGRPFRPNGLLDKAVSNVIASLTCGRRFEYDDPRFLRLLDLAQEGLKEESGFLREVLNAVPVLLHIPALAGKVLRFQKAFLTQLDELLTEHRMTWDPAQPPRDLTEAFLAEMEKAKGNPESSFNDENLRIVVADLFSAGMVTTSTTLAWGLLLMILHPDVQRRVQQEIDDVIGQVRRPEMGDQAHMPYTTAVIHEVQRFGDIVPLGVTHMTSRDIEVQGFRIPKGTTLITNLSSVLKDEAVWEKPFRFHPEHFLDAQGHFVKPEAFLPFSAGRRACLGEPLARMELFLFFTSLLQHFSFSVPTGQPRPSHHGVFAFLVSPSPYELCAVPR

CNS(=O)(=O)c1ccc(Nc2ncc3c(n2)N([C@@H](C)C2CC2)C(=O)C32CC2)cc1
IC50 [1]: 1.6 nM | Ratio IC50 (Homo sapiens [2]): 480 | Ratio IC50 (Homo sapiens [3]): 29 | Ratio IC50 (Homo sapiens [4]): 24 | IC50 [5]: 460 nM | predicted hepatic clearance at 1 µM [6]: 11.7 mL/min/kg

CNS(=O)(=O)c1ccc(Nc2ncc3c(n2)N(c2cc(F)ccc2Cl)C(=O)C32CC2)cc1
IC50 [1]: 0.62 nM | Ratio IC50 (Homo sapiens [2]): 1900 | Ratio IC50 (Homo sapiens [3]): 58 | Ratio IC50 (Homo sapiens [4]): 120 | IC50 [5]: 460 nM | predicted hepatic clearance at 1 µM [6]: 15 mL/min/kg

Cc1nn2cnc3[nH]ccc3c2c1C1CCCCC1
IC50 [1]: 2800 nM

CS(=O)(=O)N1CCC(Nc2ncc3c(n2)N(C2CCCC2)C(=O)C32CCC2)CC1
IC50 [1]: 236 nM | IC50 [7]: > 5 µM

CS(=O)(=O)N1CCC(Nc2ncc3c(n2)N(C2CCCC2)C(=O)C32CC2)CC1
IC50 [1]: 102 nM | IC50 [7]: > 5 µM | IC50 [8]: > 5 µM

CS(=O)(=O)N1CCC(Nc2ncc3c(n2)N(c2ccccc2)C(=O)C32CC2)CC1
IC50 [1]: 1610 nM

CCC1(C)C(=O)N(C2CCCC2)c2nc(NC3CCN(S(C)(=O)=O)CC3)ncc21 (configuration not stated)
IC50 [1]: 557 nM | IC50 [7]: > 5 µM

Cc1nn(C)cc1-c1ccnc(Nc2ccc(S(=O)(=O)N3CCOCC3)cc2)n1
IC50 [1]: 431 nM

[2H]C([2H])([2H])NS(=O)(=O)c1ccc(Nc2ncc3c(n2)N([C@@H]2CCC[C@@H](O)C2)C(=O)C32CC2)cc1
IC50 [5]: 642 nM | predicted hepatic clearance at 1 µM [6]: 11.7 mL/min/kg | Cmax [9]: 992 nM | Cmax [10]: 138 nM | AUC at 24 h [11]: 1.15 µM·h | AUC at 24 h [12]: 0.739 µM·h | bioavailability [13]: 100% | bioavailability [14]: 100% | QH [15]: > 100% | QH [16]: 70% | Vd [17]: 1.1 L/kg | Vd [18]: 3.5 L/kg | inhibition (INH) (Cytochrome P450 3A4): Active | inhibition at 24 h, 10 µM (hERG (KCNH2)): 9.7% | inhibition (INH) (Cytochrome P450 1A2): Active | inhibition (INH) (Cytochrome P450 2C8): Active | inhibition (INH) (Cytochrome P450 2C19): Active | inhibition (INH) (Cytochrome P450 2B6): Active | inhibition (INH) (Cytochrome P450 2C9): Active | inhibition (INH) (Cytochrome P450 2D6): Active

CC[C@@H](C(F)F)N1C(=O)C2(CC2)c2cnc(NC3CCN(S(C)(=O)=O)CC3)nc21
IC50 [1]: 23 nM | IC50 [7]: 1.69 µM | Ratio IC50 (Homo sapiens [19]): 74

CN1Cc2cnc(Nc3ccc(S(N)(=O)=O)cc3)nc2C(C)(C)C1=O
IC50 [1]: 161 nM | IC50 [7]: > 5 µM
